In patent publication US11766434B2, “Pyrimidinone derivatives as CDC7 inhibitors” (Cancer Research Technology Limited, priority 2016, dated 2023):

Target: Cdc7/ASK (Homo sapiens, UniProt O00311)
Test: Cdc7 biochemical assay Method 1: 384 well ELISA, MCM2 whole protein substrate, Phospho MCM2 (S53) antibody
Parameters: purchased
Conditions: ATP 2 μM, 90 minutes, read-out: Biochemical method 1 (pIC50) (converted)
Method: This protocol describes a method for assaying Cdc7/ASK for activity. The assay is a 384 well ELISA assay, utilising a whole protein substrate (MCM2) and an antibody against Phospho MCM2 (S53). This site is thought to be specific to Cdc7/ASK phosphorylation and the assay has been validated using knockout mutants.
• TBS: 25 mM Tris pH 7.2, 150 mM NaCl. (Dilute 10× stock by 1:10). • Wash Buffer: TBS+0.05% Tween 20. (Add 100 mL 1 M Tris pH 7.2, 120 mL 5 M NaCl and 2 mL 100% Tween 20 per 4 L). • Kinase Reaction Buffer: 50 mM Tris-HCl pH 8.5, 10 mM MgCl2, 1 mM DTT. (Dilute 10× stock by 1:10 and add 100 μL 1M DTT per 100 mL prior to assay). • Diethanolamine Buffer: 1 M diethanolamine pH 9.8, 0.5 mM MgCl2. • Stop Solution: 1 M NaOH. • MCM2 was expressed and purified in-house and used in the assay at a final assay concentration of 436 ng/well. • Cdc7/ASK is purchased from commercial suppliers and used in the assay at a final assay concentration of 37.97 ng/well or 20.63 nM. • ATP used as a final assay concentration of 2 μM. • Primary Antibody: Rabbit anti-Phospho MCM2 (S53 Antibody (BL3353)), is purchased from commercial suppliers at 0.2 mg/mL and used at a final assay concentration by diluting 1:800 in TBS. • Secondary Antibody: Anti-Rabbit/AP Antibody is supplied is purchased from commercial suppliers at 1 mg/mL and used at a final assay concentration by diluting 1:2000 in TBS. • Development Reagent: Dissolve one 20 mg PNPP tablet (Sigma, product N2765, 20 mg per tablet) per 20 mL diethanolamine Buffer (or one 5 mg PNPP tablet per 5 mL diethanolamine buffer). Cover in foil and leave shaking on a roller shaker at room temperature for up to an hour to dissolve. Methods • 1. Add 20 μL 1× working stock of Substrate (MCM2) in TBS to all wells of a clear, 384 well, Nickel-chelate microplate to give a final concentration of 250 ng/well. Incubate at room temperature for at least 1 hour. Plates can be pre-coated for 1 hour and stored at 4° C. for up to 8 days. • 2. Wash with TBS+0.05% Tween 20 (80 μL x 3). • 3. Add 2 μL 10× test compounds, including the positive control, in 40% DMSO/water to ‘test’ wells. Add 2 μL 40% DMSO/water to ‘control’ and ‘blank’ wells. The final DMSO concentration will be 4%. • 4. Add 13 μL CDCl7/ASK Kinase (1.5× stock) in Kinase Reaction Buffer to ‘test’ and ‘control’ wells to give a final concentration of […]. Add 13 μL Kinase Reaction Buffer to ‘blank’ wells. • 5. Add 5 μL ATP (4× stock) in Kinase Reaction Buffer to all wells to give a final concentration of 2 μM. • 6. Incubate at room temperature for 90 minutes. • 7. Wash with TBS+0.05% Tween 20 (80 μL x 3). • 8. Add 20 μL 1× working solution of Primary Antibody in TBS to all wells. Incubate at room temperature for 30 minutes. • 9. Wash with TBS+0.05% Tween 20 (80 μL x 3). • 10. Add 20 μL 1× working solution of Secondary Antibody in TBS to all wells. Incubate at room temperature for 30 minutes. • 11. Wash with TBS+0.05% Tween 20 (80 μL x 3). • 12. Add 20 μL 1× Development Reagent to all wells. • 13. Incubate at room temperature for 2 hours. Stop the reaction by adding 20 μL Stop Solution to all wells and record Absorbance on a Pherastar plate reader.
Percentage inhibition values were calculated from absorbance values, using the no compound (DMSO) and no enzyme control values as 0% and 100% inhibition, respectively. IC50 determination was performed with ExcelFit software (IDBS) using curve fit 205. Z′ factors were determined for each plate tested and were all above 0.5.

Cdc7/ASK, sequence (O00311 whole entry): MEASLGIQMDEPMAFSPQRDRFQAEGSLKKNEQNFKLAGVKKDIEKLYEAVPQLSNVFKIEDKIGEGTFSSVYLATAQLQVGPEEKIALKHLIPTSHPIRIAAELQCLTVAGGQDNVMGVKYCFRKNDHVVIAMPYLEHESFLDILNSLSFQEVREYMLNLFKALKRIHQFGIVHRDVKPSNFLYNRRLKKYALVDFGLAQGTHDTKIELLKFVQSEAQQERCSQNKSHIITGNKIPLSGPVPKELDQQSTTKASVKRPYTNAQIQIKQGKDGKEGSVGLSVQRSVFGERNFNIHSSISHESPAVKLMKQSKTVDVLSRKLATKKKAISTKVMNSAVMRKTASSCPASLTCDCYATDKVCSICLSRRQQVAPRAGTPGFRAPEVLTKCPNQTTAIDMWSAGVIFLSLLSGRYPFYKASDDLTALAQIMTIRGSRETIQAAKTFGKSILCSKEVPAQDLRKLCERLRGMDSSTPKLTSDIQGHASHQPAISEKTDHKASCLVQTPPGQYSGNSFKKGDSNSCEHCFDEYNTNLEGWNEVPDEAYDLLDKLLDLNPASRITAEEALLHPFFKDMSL
Cdc7/ASK, sequence (Q9UBU7 whole entry partner): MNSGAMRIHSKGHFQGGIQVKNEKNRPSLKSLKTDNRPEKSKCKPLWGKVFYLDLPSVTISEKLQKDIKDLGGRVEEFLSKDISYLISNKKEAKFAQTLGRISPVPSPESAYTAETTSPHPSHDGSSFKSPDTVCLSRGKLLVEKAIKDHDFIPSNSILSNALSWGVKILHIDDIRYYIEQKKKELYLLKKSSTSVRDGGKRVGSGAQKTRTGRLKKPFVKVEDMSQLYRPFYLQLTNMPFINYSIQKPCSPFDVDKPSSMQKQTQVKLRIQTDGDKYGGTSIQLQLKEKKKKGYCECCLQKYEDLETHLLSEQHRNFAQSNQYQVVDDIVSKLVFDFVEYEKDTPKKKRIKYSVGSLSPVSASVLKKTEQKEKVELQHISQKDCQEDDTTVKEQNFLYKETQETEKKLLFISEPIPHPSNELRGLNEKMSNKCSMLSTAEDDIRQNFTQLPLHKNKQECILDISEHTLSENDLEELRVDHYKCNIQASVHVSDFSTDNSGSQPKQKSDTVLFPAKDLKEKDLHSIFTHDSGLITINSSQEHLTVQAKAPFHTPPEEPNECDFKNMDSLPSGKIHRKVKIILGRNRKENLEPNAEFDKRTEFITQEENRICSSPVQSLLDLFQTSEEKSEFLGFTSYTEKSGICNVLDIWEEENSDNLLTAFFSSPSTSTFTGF

SMILES | IC50 [nM]
Cc1ncsc1-c1nc(C2CCN(C(=O)OC(C)(C)C)CC2)c(Cl)c(=O)[nH]1 [Compound 1, tert-butyl 4-[5-chloro-2-(4-methylthiazol-5-yl)-6-oxo-1H-pyrimidin-4-yl]piperidine-1-carboxylate] | 229
Cc1ncsc1-c1nc(C2CCOCC2)c(Br)c(=O)[nH]1 [Compound 3, 5-bromo-2-(4-methylthiazol-5-yl)-4-tetrahydropyran-4-yl-1H-pyrimidin-6-one] | 57.5
Cc1nc(O)sc1-c1nc(C2CCOCC2)c(Cl)c(=O)[nH]1 [Compound 5, 5-chloro-2-(2-hydroxy-4-methyl-thiazol-5-yl)-4-tetrahydropyran-4-yl-1H-pyrimidin-6-one] | 126
Cc1ncsc1-c1nc(C2CCOCC2)c(I)c(=O)[nH]1 [Compound 7, 5-Iodo-2-(4-methylthiazol-5-yl)-4-tetrahydropyran-4-yl-1H-pyrimidin-6-one] | 245
O=c1[nH]c(-c2cncs2)nc(C2CCOCC2)c1Cl [Compound 9, 5-chloro-4-tetrahydropyran-4-yl-2-thiazol-5-yl-1H-pyrimidin-6-one] | 562
Cn1nccc1-c1nc(C2CCOCC2)c(Cl)c(=O)[nH]1 [Compound 10, 5-chloro-2-(2-methylpyrazol-3-yl)-4-tetrahydropyran-4-yl-1H-pyrimidin-6-one] | 93.3
Cc1nnsc1-c1nc(C2CCOCC2)c(Cl)c(=O)[nH]1 [Compound 11, 5-chloro-2-(4-methylthiadiazol-5-yl)-4-tetrahydropyran-4-yl-1H-pyrimidin-6-one] | 692
Cc1ncsc1-c1nc(C2CCOCC2)c(C#N)c(=O)[nH]1 [Compound 18, 2-(4-methylthiazol-5-yl)-6-oxo-4-tetrahydropyran-4-yl-1H-pyrimidine-5-carbonitrile] | 60.3
Cc1ncsc1-c1nc(C2CCN(C(=O)C3CC3(F)F)CC2)c(Cl)c(=O)[nH]1 (stereo not shown) [Compound 19, 5-chloro-4-[1-(2,2-difluorocyclopropanecarbonyl)-4-piperidyl]-2-(4-methylthiazol-5-yl)-1H-pyrimidin-6-one] | 40.7
Cc1ncsc1C(=O)N1CCC(c2nc(-c3scnc3C)[nH]c(=O)c2Cl)CC1 [Compound 20, 5-chloro-4-[1-(4-methylthiazole-5-carbonyl)-4-piperidyl]-2-(4-methylthiazol-5-yl)-1H-pyrimidin-6-one] | 4.47
Cc1ncsc1-c1nc(C2CCN(C(=O)c3cscn3)CC2)c(Cl)c(=O)[nH]1 [Compound 21, 5-chloro-2-(4-methylthiazol-5-yl)-4-[1-(thiazole-4-carbonyl)-4-piperidyl]-1H-pyrimidin-6-one] | 3.98
Cc1cc(C(=O)N2CCC(c3nc(-c4scnc4C)[nH]c(=O)c3Cl)CC2)[nH]n1 [Compound 22, 5-chloro-4-[1-(3-methyl-1H-pyrazole-5-carbonyl)-4-piperidyl]-2-(4-methylthiazol-5-yl)-1H-pyrimidin-6-one] | 4.37
Cc1cc(C(=O)N2CCC(c3nc(-c4scnc4C)[nH]c(=O)c3Cl)CC2)n(C)n1 [Compound 24, 5-chloro-4-[1-(2,5-dimethylpyrazole-3-carbonyl)-4-piperidyl]-2-(4-methylthiazol-5-yl)-1H-pyrimidin-6-one] | 3.98
Cc1ncsc1-c1nc(C2CCN(C(=O)c3ccnnc3)CC2)c(Cl)c(=O)[nH]1 [Compound 26, 5-chloro-2-(4-methylthiazol-5-yl)-4-[1-(pyridazine-4-carbonyl)-4-piperidyl]-1H-pyrimidin-6-one] | 1.66
Cc1ncsc1-c1nc(C2CCN(CC(C)C)CC2)c(Cl)c(=O)[nH]1 [Compound 27, 5-chloro-4-(1-isobutyl-4-piperidyl)-2-(4-methylthiazol-5-yl)-1H-pyrimidin-6-one] | 56.2
Cc1ncsc1-c1nc(N2CCCNC(=O)C2)c(Cl)c(=O)[nH]1 [Compound 34, 4-[5-chloro-2-(4-methylthiazol-5-yl)-6-oxo-1H-pyrimidin-4-yl]-1,4-diazepan-2-one] | 158
